Data reported in US20250177478A1, “G ALPHA Q/11 INHIBITORS FOR USE AS AN ANALGESIC” (University of Florida Research Foundation, Incorporated, priority 2022, published 2025).
Positions of bridges follow the written chain, without caps; N, C: chain ends. Non-standard residues stand in square brackets, D forms with d. Residues, ends and D or L forms follow the SMILES beside them. Leu(3R-O(AcLeu(3R-OH))) = CC(=O)N[C@H](C(=O)O[C@H](C(C)C)[C@H](N)C(=O)O)[C@H](O)C(C)C; NMeT = CN[C@H](C(=O)O)[C@@H](C)O; dPhLac = O=C(O)[C@H](O)Cc1ccccc1; NMeA = CN[C@@H](C)C(=O)O; NMeDha = C=C(NC)C(=O)O

Test system: DRG nociceptors
Experiment: Whole cell patch-clamp recordings of acutely dissociated DRG nociceptors
Type: cell-based, mouse
Method: F. Acutely dissociated dorsal root ganglion (DRG) Preparation. Male or female mice between 1 and 2 months of age were used for acute DRG isolations. […] Dissociated DRG cultures were prepared as previously described (Perner C et al. “Protocol for dissection and culture of murine dorsal root ganglia neurons to study neuropeptide release.” STAR Protoc (2021) 2:100333). Briefly, DRGs were dissected from 1- to 2-month-old mice in Hank's buffered salt solution (HBSS) and digested with Collagenase A and Dispase II for 25 min at 37° C., centrifuged at 200×g for 5 min, and washed with Dulbecco's modified Eagle's medium (DMEM) supplemented with 10% fetal bovine serum (FBS), glutamate, sodium pyruvate, 1% penicillin and 1% streptomycin. DRGs were then triturated in Neurobasal A medium supplemented with 10% FBS, 1% penicillin, 1% streptomycin, 1% GlutaMAX, 2% B27, […] nerve growth factor (NGF) and […] glial cell line-derived neurotrophic factor (GDNF). After plating on laminin-coated coverslips, cells were incubated at 37° C. overnight. Experiments were performed the day after dissection.
G. Whole cell patch-clamp recordings. Nociceptors were identified by physiological classification protocols (Petruska J C et al. “Subclassified acutely dissociated cells of rat DRG: histochemistry and patterns of capsaicin-, proton-, and ATP-activated currents.” J Neurophysiol (2000) 84:2365-2379) summarized in FIG. 10 and further by responsivity to morphine. Each experimental group consisted of 12-18 DRG recordings from three animals, 1-2 of which were female. Hyperpolarization-activated current (Ih) and kinetics of resulting transient currents were determined by stepping membrane potential from −60 to −110 mV for 500 ms in 10 mV increments (FIG. 10A). Outward currents were identified by first preconditioning membrane potential at −100 mV for 500 ms and then stepping from −60 to 40 mV in 20 mV increments for 200 ms (FIG. 10D). Inward current dynamics were determined by preconditioning at −80 mV and then stepping from −60 to 40 mV in 10 mV increments (FIG. 10G). A 6-s, 0- to 2-nA continuous ramp stimulation protocol was used to determine rheobase. Membrane capacitance (Cm), series resistance (Rs) and input resistance (Ri) were tested with a hyperpolarizing 10 mV pulse of 10 ms duration initially and at a 30 s interval throughout the recording period. Cells were recorded only if initial series resistance was ≤20 MΩ and excluded if Rs varied >20% while recording. Offline analysis identified clustering of a population n=30 with uniform morphine responsivity that was selected for further analysis, with basal parameters #SEM: Cm=27.31±4.72 pF, Ri=492±19.29 MQ, Ih=7.10±2.45 pA·pF−1, IA tau=8.39±0.41 ms and action potential (AP) tau=1.22±0.08 ms. K+ internal was used for all recordings, containing: 6 mM NaCl, 4 mM NaOH, 130 mM K-gluconate, 11 mM ethylene glycol-bis(β-aminoethyl ether)tetraacetic acid (EGTA), 1 mM CaCl2, 1 mM MgCl2, 10 mM N-(2-hydroxyethyl)piperazine-N′-(2-ethanesulphonic acid) (HEPES), 2 mM Na2ATP, and 0.2 mM Na2GTP 0.2, adjusted to pH 7.3-7.4 with HCl. External artificial CSF contained: 125 mM NaCl, 3 mM KCl, 1.2 mM KH2PO4, 1.2 mM MgSO4, 25 mM NaHCO3, 2 mM CaCl2), and 10 mM dextrose 10, adjusted to pH 7.3-7.4 with HCl.

[1] = co-application 100 nM YM + 1 μM morphine

SMILES: C=C1C(=O)N[C@@H](C)C(=O)N(C)[C@@H](C)C(=O)N[C@@H]([C@H](OC(=O)[C@@H](NC(C)=O)[C@H](O)C(C)C)C(C)C)C(=O)N(C)[C@@H]([C@@H](C)OC)C(=O)O[C@H](C)[C@H](NC(C)=O)C(=O)O[C@H](Cc2ccccc2)C(=O)N1C [YM-254890] (Ac-T[dPhLac][NMeDha]A[NMeA][Leu(3R-O(AcLeu(3R-OH)))][NMeT](Me); ester 1-C)
- inhibition of substance P induced excitation of DRG nociceptors (10 nM substance P followed by 10 nM SP and 100 nM YM): inhibit the effects of substance P
- magnitude of decrease in excitability relative to morphine (100 nM YM versus 1 μM morphine): smaller as compared with morphine
- rapidly inactivating A-type potassium currents (IA), voltage-step protocol 2 (YM-254890 or morphine alone): significantly inhibited IA
- AP amplitude, voltage-step protocol (bath application alone: 100 nM YM or 1 μM morphine): moderately reduced AP amplitude
- excitability of DRG nociceptors (rheobase, 0-2 nA ramp stimulation) (bath application alone: 1 μM morphine or 100 nM YM): significant decrease in the excitability
- action potential firing in 0-2 nA ramp protocol [1]: prevented action potential firing throughout the 2-nA ramp protocol in all recordings
- evoked AP responses, voltage-step protocol [1]: largely prevented evoked AP responses
- evoked AP responses, voltage-step protocol (co-application 100 nM YM + 1 μM morphine, listed as YM): greatly inhibited evoked depolarization
- rapidly inactivating A-type potassium currents (IA), voltage-step protocol 2 (coadministration of YM-254890 and morphine): nearly eliminated IA
